Data published in patent publication US4771123A, “Peptide thioneamides as selective substrates for cysteine proteases” (Enzyme Systems Products, Inc., priority 1986, dated 1988).

Columns and labels:
Type in all cases: biochemical
[1] = molecular target: T1, Papain (Carica papaya, UniProt P00784); test: Selective detection assay, rate of AIE formation with papain alone (Table II); conditions: Papain 6.85×10^-6 M; thiol buffer pH 6.5, 2.5% DMSO; substrate 2.46×10^-4 M (Cbz-Lys-AIE) or 2.53×10^-4 M (Cbz-Lys.PSI.[CS]-AIE)
T1 sequence (P00784 134-345): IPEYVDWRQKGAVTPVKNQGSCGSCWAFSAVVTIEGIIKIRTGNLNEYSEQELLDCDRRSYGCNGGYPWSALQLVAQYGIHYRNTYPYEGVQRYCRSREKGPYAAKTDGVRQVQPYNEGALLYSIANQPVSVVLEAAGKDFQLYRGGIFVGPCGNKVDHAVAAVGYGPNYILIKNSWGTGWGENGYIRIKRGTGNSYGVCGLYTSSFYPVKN
Description: (§1) A thiol buffer at pH 6.5 was used (52 mM NaH2 PO4, 31 mM dithiothreitol, 2.1 mM EDTA) with 2.5% DMSO. The enzyme concentrations in the assays were 6.85×10^-6 M for papain, and 1.28×10^-6 M for trypsin. Substrate concentrations were 2.46×10^-4 M for Cbz-Lys-AIE, and 2.53×10^-4 M for Cbz-Lys.PSI.[CS]-AIE. Rates are given in terms of moles AIE formed per minute.

[2] = molecular target: T1, Papain; test: Hydrolysis of oxyamide and thioneamide substrates by papain (catalytic constants, Table I); conditions: pH 6.5, thiol buffer (52 mM NaH2PO4, 31 mM dithiothreitol, 2.1 mM EDTA), 12.5% DMSO
Description: (§2) Table I below provides a comparison between hydrolysis rates of trypsin and papain acting on two different oxyamides and on their corresponding thioneamides. Trypsin was used at pH 7.5 in a Tris buffer (50 mM), with 10 mM CaCl2, and 12.5% DMSO. Papain was used at pH 6.5 in a thiol buffer (52 mM NaH2 PO4, 31 mM dithiothreitol, 2.1 mM EDTA) and 12.5% DMSO. Table I lists the catalytic constants kcat (moles product formed per second per mole enzyme), KM (M), and kcat /KM (M^-1 sec^-1) for the indicated substrates.

[3] = tested on: Trypsin; test: Hydrolysis of oxyamide and thioneamide substrates by trypsin (catalytic constants, Table I); conditions: pH 7.5, Tris buffer (50 mM), 10 mM CaCl2, 12.5% DMSO
Description: as §2

[4] = tested on: Trypsin; test: Selective detection assay, rate of AIE formation with trypsin alone (Table II); conditions: Trypsin 1.28×10^-6 M; thiol buffer pH 6.5, 2.5% DMSO; substrate 2.46×10^-4 M (Cbz-Lys-AIE) or 2.53×10^-4 M (Cbz-Lys.PSI.[CS]-AIE)
Description: as §1

Compound	Rate of AIE formation [1]	Km [2] [µM]	kcat [2]	kcat /KM [2] [M⁻¹ s⁻¹]	Km [3] [µM]	kcat [3]	kcat /KM [3] [M⁻¹ s⁻¹]	rate of product formation by trypsin (in words) [3]	Rate of AIE formation [4]
COC(=O)c1cc(NC(=O)[C@H](CCCCN)NC(=O)OCc2ccccc2)cc(C(=O)OC)c1 [Cbz--Lys--AIE, Cbz-Lys-AIE]	6.03 moles AIE formed per minute	281	2.95 × 10^-2 moles product formed per secon	105	168	1.15 × 10^-1 moles product formed per secon	686		
Br.COC(=O)c1cc(NC(=S)[C@H](CCCNC(=N)N)NC(=O)[C@H](Cc2ccccc2)NC(=O)OCc2ccccc2)cc(C(=O)OC)c1 [Cbz--Phe--Arg.psi.[CS]--AIE, Cbz-Phe-Arg.PSI.[CS]-AIE.HBr]		574	5.35 moles product formed per secon	0.0932				NO RATE	
Cbz--Phe--Arg--AIE		813	3.53 × 10^1 moles product formed per secon	43500	502	9.03 × 10^-1 moles product formed per secon	1800		
Cbz-Lys.PSI.[CS]-AIE.HCl [Cbz--Lys.psi.[CS]--AIE]	1.15 moles AIE formed per minute	213	4.00 × 10^-3 moles product formed per secon	18.8				NO RATE	0.00 moles AIE formed per minute
